Results from patent US20230073301A1, “TISSUE DOSING FOR INTRALUMINAL LOCAL DRUG DELIVERY” (ISOLA THERAPEUTICS, INC., priority 2020, published 2023).
Where “and” joins values, the source holds several entries; their conditions need not be identical. Equal entries are not always repeated. Where two headings read alike, the source gives them in different places. One block for each compound: values may come before it.

Columns and labels:
[1] = GMX001 plasma PTX concentration after systemic infusion (LC/MS); assay type: in vivo, porcine; details: pig; for concentration at 3 h: systemic infusion 175 mg/m^2 over 3 hours; for Cmax: iv, 175 mg/m2, systemic
Protocol: The systemic studies were denoted GMX001 and local administration studies GMX002.
For GMX001 (systemic), anatomy permitting, 2 animals were used and divided into a 3 hour animal and a 72 hour animal.
(§1) For GMX001, both animals underwent surgery to place two (2) CVL catheters, 1 for infusion and 1 for plasma collection. The animals were allowed to recover and stabilize.

[2] = GMX001 colon tissue PTX concentration after systemic infusion; assay type: in vivo, porcine; details: 3 hour animal 19P0837; for concentration at 3 h: pig, intravenous, 4.28 mg/kg/hr, Colon PTX concentration
Excerpt: Three samples each were taken from the rectum, transverse (tran) colon, ascending (asc) colon, descending (desc) colon and colon lymph nodes (LN).

[3] = GMX002 plasma PTX concentration after local lung lavage; assay type: in vivo, porcine
Protocol: For GMX002 (local), anatomy permitting, 2 animals were divided into a 20 minute animal and a 72 hour animal.
The necropsy for tissue collection was completed to obtain information on the drug concentration within the lung and lung lymph nodes.
The chronic (72 hour) animal in the study was recovered with blood plasma samples collected immediately after infusion, followed by additional blood plasma collection occurring at 5, 15, and 30 minutes following infusion. More blood plasma was collected after 1, 3, 5, 9, 24, and 72 hours. The necropsy for tissue collection took place 72 hours after infusion with drug concentration measurements in the lung and lung lymph nodes. Histopathology was done on the lung.
Animal 19P0844 was infused with 700 mL. Animal 19P1241 was infused with approximately 900 mL.
Animal 19P1241 had 2 mL of blood collected at baseline and at 5, 10, 15 and 20 minutes of infusion. Plasma was collected for processing. Animal 19P0884 had 2 mL of blood collected at baseline, 5, 10, 15 and 20 minutes of infusion. Following infusion, blood was collected at 5, 15, 30 minutes with more blood being collected after 1, 3, 5, 9, 24, and 72 hours.

[4] = GMX002 lung tissue PTX concentration after local lung lavage; assay type: in vivo, porcine; details: for concentration at 20 min: pig
Protocol: A blood sample was also collected at 0, 5, 10, 15, and 20 minutes.
(§2) Spectra were compared to the validated protocol and standard curve generated for the study.
The acute animal (19P1241) and the chronic animal (19P0884) were sent to necropsy for gross pathology and tissue harvesting. Three full thickness lung tissue sample from each of the cranial (cran) caudal (caud) and middle (mid) lobes of the untreated left lung and three lung tissue samples from each of the cranial (cran) caudal (caud) and middle (mid) lobes of the treated right lung were taken from the 20 minute animal, frozen and sent for analytical analysis.

[5] = assay type: in vivo, porcine
Protocol: as §1
Animal 19P0837 had 2 mL of blood collected at baseline and after the 3 hours infusion. […] Blood was processed and sent to Analytical for processing. […] The animal survived to the scheduled term with signs of discomfort as per technician's observations. The animal had blisters on the chest at day 3, prior to term.
Gross examination of the lungs, colon, jejunum, regional lymph nodes, and collateral structures was conducted. […] Lungs were also slightly heavy. […] Small intestine appeared bloated diffusely. The lumen of darkened jejunum section appeared mottled dark purple to black. There were no other abnormal findings noted at necropsy.

in vivo [6] = details: pig, intravenous
Excerpt: (§3) The necropsy for tissue collection after the last plasma sample focused on drug concentration and included: lung, lung lymph nodes, colon, and the colon lymph nodes.
as §2
(§4) The acute animal (19P0837) and the chronic animal (19P0997) were sent to necropsy for gross pathology and tissue harvesting. Three full thickness lung tissue samples from each of the cranial (cran) caudal (caud) and middle (mid) lobes were frozen and sent for analytical analysis.

[7] = GMX001 lung and lung lymph node PTX concentration after systemic infusion
Excerpt: as §3, §2, §4

[8] = Animal experiment, first pig: systemic paclitaxel, plasma and lung tissue concentration
Protocol: (§5) A first pig was given 4.28 mg/kg/hr of paclitaxel systemically, i.e., intravenously over three hours. […] Next, the lung tissue in a second pig was saturated with paclitaxel via the airways by an endoluminal approach. […] The drug solution dwelled in the airways of the second animal for approximately 20 minutes to ensure saturation of the lung tissue before being evacuated from the airways.

[9] = Animal experiment, second pig: endoluminal airway paclitaxel, lung tissue concentration; details: soaking solution 75.8 μM in airways, approximately 20 minutes dwell
Protocol: as §5

[10] = humans, cited from earlier work
[11] = Porcine local levofloxacin: pathology and side effects; assay type: in vivo
Protocol: (§6) Porcine studies were performed similarly to as described in Example A but using levofloxacin as the drug agent. Only local administration to the lung was performed.

[12] = pig, in vivo
Protocol: as §6

[13] = humans; systemic administration; cited from earlier work
in vivo [14] = details: pig
Protocol: as §6

[15] = local lavage of right lung, 20 min, animal 19P1241
[16] = lung tissue (RT mid lung), 175 mg/m^2
[17] = systemic, 3 hour animal 19P0837
[18] = systemic, 72 hour animal 19P0997

Structure (SMILES): CC(=O)O[C@H]1C(=O)[C@@]2(C)[C@H]([C@H](OC(=O)c3ccccc3)[C@]3(O)C[C@H](OC(=O)[C@H](O)[C@@H](NC(=O)c4ccccc4)c4ccccc4)C(C)=C1C3(C)C)[C@]1(OC(C)=O)CO[C@@H]1C[C@@H]2O [PTX, 5β,20-Epoxy-1,2α,4,7β,10β,13α-hexahydroxytax-11-en-9-one 4,10-diacetate 2-benzoate 13-ester with (2R,3S)-N-benzoyl-3-phenylisoserine]
concentration at 3 h ([1]; intravenous, 175 mg/m^2, Blood PTX concentration, animal 19P0837, 3 hr): 57000 ng/mL | concentration at 3 h ([1]; intravenous, 175 mg/m^2, Blood PTX concentration, animal 19P0997, 3 hr): 67100 ng/mL | concentration at 4 h ([1]; intravenous, 175 mg/m^2, Blood PTX concentration, systemic infusion, animal 19P0997, 4 hr): 43100 ng/mL | concentration at 6 h ([1]; intravenous, 175 mg/m^2, Blood PTX concentration, systemic infusion, animal 19P0997, 6 hr): 28500 ng/mL | concentration at 8 h ([1]; intravenous, 175 mg/m^2, Blood PTX concentration, systemic infusion, animal 19P0997, 8 hr): 27100 ng/mL | concentration at 12 h ([1]; intravenous, 175 mg/m^2, Blood PTX concentration, systemic infusion, animal 19P0997, 12 hr): 20500 ng/mL | concentration at 24 h ([1]; intravenous, 175 mg/m^2, Blood PTX concentration, systemic infusion, animal 19P0997, 24 hr): 9110 ng/mL | concentration at 72 h ([1]; intravenous, 175 mg/m^2, Blood PTX concentration, systemic infusion, animal 19P0997, 72 hr): 713 ng/mL | Cmax ([1]; 3 hour animal): 57000 ng/mL | Cmax ([1]; 72 hour animal): 67100 ng/mL | Colon PTX concentration, asc colon [2]: 16900 ng/g and 13200 ng/g | Colon PTX concentration, colon LN [2]: 12700 ng/g and 17700 ng/g | Colon PTX concentration, desc colon [2]: 12700 ng/g and 12800 ng/g | Colon PTX concentration, rectum [2]: 14100 ng/g and 16000 ng/g | Colon PTX concentration, tran colon [2]: 14600 ng/g and 13200 ng/g | concentration at 3 h ([2]; ascending colon, asc colon): 10800 ng/g | concentration at 3 h ([2]; colon lymph nodes, colon LN): 19600 ng/g | concentration at 3 h ([2]; descending colon, desc colon): 12500 ng/g | concentration at 3 h ([2]; rectum): 14400 ng/g | concentration at 3 h ([2]; transverse colon, tran colon): 13500 ng/g | plasma Cmax local / systemic ([3]; […]57000 ng/mL): 0.048% | plasma Cmax local / systemic ([3]; […]67100 ng/mL): 0.041% | plasma Cmax for local administration as % of plasma Cmax with systemic administration ([3]; local vs systemic): less than 0.05% | plasma Cmax lower with local than with systemic administration ([3]; local vs systemic): more than 2000 fold | time of peak plasma concentration after end of lung infusion ([3]; local, 32,000 ng/mL, after the lung was cleared of the drug): 5 min | time of peak concentration of PTX in plasma after infusion initiation ([3]; local, 72 hour animal 19P0844): 25 | Cmax ([3]; pig, plasma, other: local lung lavage (right lung, via catheter), 32000 ng/mL (lavage solution), local, 5 minutes post local infusion, read-out: maximum concentration in plasma (Cmax)): 27.6 ng/mL | Lung PTX concentration, RT caud lung [4, 15]: 35300 ng/g tissue and 29800 ng/g tissue | Lung PTX concentration, RT cran lung [4, 15]: 32100 ng/g tissue and 38400 ng/g tissue | Lung PTX concentration, RT Mid Lung ([4]; local lavage of right lung, 20 min, animal 19P1241, middle lobe believed blocked): 760 ng/g tissue and 557 ng/g tissue | lower drug concentration with local vs systemic administration for same lung tissue uptake ([4]; local vs systemic): 37 fold | concentration at 20 min ([4]; lung tissue, other: local lung lavage (right lung, via catheter), 32000 ng/mL (lavage solution), PTX in lung tissue achieved, local administration (GMX002)): > 30000 ng/g | concentration at 20 min ([4]; lung tissue, other: local lung lavage (right lung, via catheter), 32000 ng/mL (lavage solution), PTX per g of lung tissue, local, acute animal): ~32000 ng/g | concentration at 20 min ([4]; lung tissue, other: local lung lavage (right lung, via catheter), 32000 ng/mL (lavage solution), highest PTX level in lung tissue, local administration): 38400 ng/g | concentration at 20 min ([4]; lung, caudal lobe of the treated right lung, 32000 ng/mL, Lung PTX concentration, RT Caud Lung, local lavage of right lung, 20 min, animal 19P1241): 34600 ng/g | concentration at 20 min ([4]; lung, middle lobe of the treated right lung, 32000 ng/mL, Lung PTX concentration, RT Mid Lung, local lavage of right lung, 20 min, animal 19P1241, middle lobe believed blocked): 749 ng/g | early mortality ([5]; GMX001): no early mortality | distress with infusion ([5]; pig, in vivo): showed distress | terminal clinical pathology ([5]; pig, in vivo): decrease in WBC, neutrophils, lymphocytes and platelet counts | early mortality (GMX002): no early mortality | Clinical observations (pig, in vivo): GMX002: Unremarkable | Physical examination (pig, in vivo): GMX002: Unremarkable | adverse events / clinical observations (pig, in vivo): did not have any adverse events | distress or complications during administration (pig, in vivo): did not show signs of distress or complications | gross necropsy findings (pig, in vivo): no other abnormal findings noted at necropsy that could be attributed to the treatment | terminal clinical pathology (pig, in vivo): clinical markers comparable to baseline | concentration at 72 h (in vivo [6]; lung lymph node, 175 mg/m^2): 4340 ng/g | concentration at 3 h (in vivo [6]; lung tissue (RT caud lung), 175 mg/m^2): 42900 ng/g | concentration at 3 h (in vivo [6]; lung tissue (RT cran lung), 175 mg/m^2): 32200 ng/g | concentration at 3 h (in vivo [6]; [16]): 32000 ng/g | concentration at 72 h (in vivo [6]; [16]): 3560 ng/g | concentration at 72 h (in vivo [6]; lung, right caudal lobe, 4.28 mg/kg/hr): 2720 ng/g | decrease of lung PTX concentration 72 hours following systemic administration ([7]; 3 hour animal 19P0837 vs 72 hour animal 19P0997): approximately 3.5 fold | PTX in lung tissue achieved ([7]; systemic administration (GMX001)): greater than 30000 ng/g | lung tissue concentration range ([7]; systemic drug delivery at 3 hours): 12,500-41,200 ng/g | Lung PTX concentration, RT caud lung [7, 17]: 28800 ng/g and 31600 ng/g | Lung PTX concentration, RT cran lung [7, 17]: 27000 ng/g and 27300 ng/g | Lung PTX concentration, RT mid lung [7, 17]: 41200 ng/g and 28300 ng/g | Lung PTX concentration, RT caud lung [7, 18]: 2070 ng/g | Lung PTX concentration, RT cran lung [7, 18]: 2660 ng/g | Lung PTX concentration, RT mid lung [7, 18]: 2590 ng/g | Lung PTX concentration, lung LN ([7]; systemic, 72 hour animal 19P0997, lung lymph node samples): 4240 ng/g | maximum plasma concentration MPC ([8]; 4.28 mg/kg/hr intravenously over three hours): 78.58 µM | average lung tissue concentration TC ([8]; samples immediately after systemic delivery): 37.9 µM | average lung tissue concentration TC [9]: 40.4 µM

Structure (SMILES): N.N.[Cl][Pt][Cl] [cisplatin]
Cmax ([10]; systemic administration, read-out: Typical plasma Cmax): 30 µM | typical lung tissue Cmax ([10]; systemic delivery): 170 µM

Sputum levels [12]: 32 µg/mL | Cmax (in vivo [14]): 291 ng/mL
Structure (SMILES): C[C@H]1COc2c(N3CCN(C)CC3)c(F)cc3c(=O)c(C(=O)O)cn1c23 [levofloxacin]
lung damage at pathology ([11]; following local delivery): No lung damage was observed | side effects ([11]; local delivery): no significant side effects | Typical plasma Cmax [13]: 5600 ng/mL
